Measured values reported in PubChem BioAssay (NCI).
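Protocol summary: plate cells (96-well), add compound at 5 concentrations, incubate 48 h, interpolate endpoints linearly. TGI: concentration producing complete growth inhibition.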

System: 786-0 renal
Test: NCI tumour cell line growth inhibition, 48 h

| SMILES | TGI |
| --- | --- |
| CN(C)c1ccc(/C=c2/c3ccccc3n3c2cc(-c2ccccc2)[n+]3C)cc1 | 1.34 µM |
| CON(C)C(=O)C(C)NC(=O)OCc1ccccc1 (stereo not given) | > 100 µM |
| Nc1cc2c3c(cccc3c1)NC2=O | > 100 µM |
| N#C/C(=C\c1cccc(Br)c1)c1nc2ccccc2c(=O)[nH]1 | > 100 µM |

System: A498 renal
Test: NCI tumour cell line growth inhibition, 48 h

| SMILES | TGI |
| --- | --- |
| CN(C)c1ccc(/C=c2/c3ccccc3n3c2cc(-c2ccccc2)[n+]3C)cc1 | 4.38 µM |
| CON(C)C(=O)C(C)NC(=O)OCc1ccccc1 (stereo not given) | > 100 µM |
| Nc1cc2c3c(cccc3c1)NC2=O | > 100 µM |

System: A549 NSCLC
Test: NCI tumour cell line growth inhibition, 48 h

| SMILES | TGI |
| --- | --- |
| CN(C)c1ccc(/C=c2/c3ccccc3n3c2cc(-c2ccccc2)[n+]3C)cc1 | 2.04 µM |
| CON(C)C(=O)C(C)NC(=O)OCc1ccccc1 (stereo not given) | > 100 µM |
| Nc1cc2c3c(cccc3c1)NC2=O | > 100 µM |
| N#C/C(=C\c1cccc(Br)c1)c1nc2ccccc2c(=O)[nH]1 | > 100 µM |

System: ACHN renal
Test: NCI tumour cell line growth inhibition, 48 h

| SMILES | TGI |
| --- | --- |
| CN(C)c1ccc(/C=c2/c3ccccc3n3c2cc(-c2ccccc2)[n+]3C)cc1 | 2.33 µM |
| CON(C)C(=O)C(C)NC(=O)OCc1ccccc1 (stereo not given) | > 100 µM |
| Nc1cc2c3c(cccc3c1)NC2=O | > 100 µM |
| N#C/C(=C\c1cccc(Br)c1)c1nc2ccccc2c(=O)[nH]1 | > 100 µM |

System: BT-549 breast
Test: NCI tumour cell line growth inhibition, 48 h

| SMILES | TGI |
| --- | --- |
| CON(C)C(=O)C(C)NC(=O)OCc1ccccc1 (stereo not given) | > 100 µM |

System: CAKI-1 renal
Test: NCI tumour cell line growth inhibition, 48 h

| SMILES | TGI |
| --- | --- |
| CN(C)c1ccc(/C=c2/c3ccccc3n3c2cc(-c2ccccc2)[n+]3C)cc1 | 7.65 µM |
| Nc1cc2c3c(cccc3c1)NC2=O | > 100 µM |
| N#C/C(=C\c1cccc(Br)c1)c1nc2ccccc2c(=O)[nH]1 | > 100 µM |

System: CCRF-CEM leukemia
Test: NCI tumour cell line growth inhibition, 48 h

| SMILES | TGI |
| --- | --- |
| CON(C)C(=O)C(C)NC(=O)OCc1ccccc1 (stereo not given) | > 100 µM |
| Nc1cc2c3c(cccc3c1)NC2=O | > 100 µM |
| N#C/C(=C\c1cccc(Br)c1)c1nc2ccccc2c(=O)[nH]1 | > 100 µM |

System: COLO 205 colon
Test: NCI tumour cell line growth inhibition, 48 h

| SMILES | TGI |
| --- | --- |
| Nc1cc2c3c(cccc3c1)NC2=O | > 100 µM |
| N#C/C(=C\c1cccc(Br)c1)c1nc2ccccc2c(=O)[nH]1 | > 100 µM |

System: DU-145 prostate
Test: NCI tumour cell line growth inhibition, 48 h

| SMILES | TGI |
| --- | --- |
| CN(C)c1ccc(/C=c2/c3ccccc3n3c2cc(-c2ccccc2)[n+]3C)cc1 | 1.92 µM |
| CON(C)C(=O)C(C)NC(=O)OCc1ccccc1 (stereo not given) | > 100 µM |
| Nc1cc2c3c(cccc3c1)NC2=O | > 100 µM |
| N#C/C(=C\c1cccc(Br)c1)c1nc2ccccc2c(=O)[nH]1 | > 100 µM |

System: EKVX NSCLC
Test: NCI tumour cell line growth inhibition, 48 h

| SMILES | TGI |
| --- | --- |
| CON(C)C(=O)C(C)NC(=O)OCc1ccccc1 (stereo not given) | > 100 µM |
| Nc1cc2c3c(cccc3c1)NC2=O | > 100 µM |
| N#C/C(=C\c1cccc(Br)c1)c1nc2ccccc2c(=O)[nH]1 | > 100 µM |

System: HCC-2998 colon
Test: NCI tumour cell line growth inhibition, 48 h

| SMILES | TGI |
| --- | --- |
| CN(C)c1ccc(/C=c2/c3ccccc3n3c2cc(-c2ccccc2)[n+]3C)cc1 | > 100 µM |
| CON(C)C(=O)C(C)NC(=O)OCc1ccccc1 (stereo not given) | > 100 µM |
| Nc1cc2c3c(cccc3c1)NC2=O | > 100 µM |
| N#C/C(=C\c1cccc(Br)c1)c1nc2ccccc2c(=O)[nH]1 | > 100 µM |

System: HCT-116 colon
Test: NCI tumour cell line growth inhibition, 48 h

| SMILES | TGI |
| --- | --- |
| CN(C)c1ccc(/C=c2/c3ccccc3n3c2cc(-c2ccccc2)[n+]3C)cc1 | 1.32 µM |
| CON(C)C(=O)C(C)NC(=O)OCc1ccccc1 (stereo not given) | > 100 µM |
| Nc1cc2c3c(cccc3c1)NC2=O | > 100 µM |
| N#C/C(=C\c1cccc(Br)c1)c1nc2ccccc2c(=O)[nH]1 | > 100 µM |

System: HCT-15 colon
Test: NCI tumour cell line growth inhibition, 48 h

| SMILES | TGI |
| --- | --- |
| CN(C)c1ccc(/C=c2/c3ccccc3n3c2cc(-c2ccccc2)[n+]3C)cc1 | 3.06 µM |
| CON(C)C(=O)C(C)NC(=O)OCc1ccccc1 (stereo not given) | > 100 µM |
| Nc1cc2c3c(cccc3c1)NC2=O | > 100 µM |
| N#C/C(=C\c1cccc(Br)c1)c1nc2ccccc2c(=O)[nH]1 | > 100 µM |

System: HL-60(TB) leukemia
Test: NCI tumour cell line growth inhibition, 48 h

| SMILES | TGI |
| --- | --- |
| CN(C)c1ccc(/C=c2/c3ccccc3n3c2cc(-c2ccccc2)[n+]3C)cc1 | 0.123 µM |
| CON(C)C(=O)C(C)NC(=O)OCc1ccccc1 (stereo not given) | > 100 µM |
| Nc1cc2c3c(cccc3c1)NC2=O | > 100 µM |
| N#C/C(=C\c1cccc(Br)c1)c1nc2ccccc2c(=O)[nH]1 | > 100 µM |

System: HOP-62 NSCLC
Test: NCI tumour cell line growth inhibition, 48 h

| SMILES | TGI |
| --- | --- |
| CN(C)c1ccc(/C=c2/c3ccccc3n3c2cc(-c2ccccc2)[n+]3C)cc1 | 1.12 µM |
| CON(C)C(=O)C(C)NC(=O)OCc1ccccc1 (stereo not given) | > 100 µM |
| Nc1cc2c3c(cccc3c1)NC2=O | > 100 µM |
| N#C/C(=C\c1cccc(Br)c1)c1nc2ccccc2c(=O)[nH]1 | 62.7 µM |

System: HOP-92 NSCLC
Test: NCI tumour cell line growth inhibition, 48 h

| SMILES | TGI |
| --- | --- |
| CN(C)c1ccc(/C=c2/c3ccccc3n3c2cc(-c2ccccc2)[n+]3C)cc1 | 1.01 µM |
| CON(C)C(=O)C(C)NC(=O)OCc1ccccc1 (stereo not given) | > 100 µM |
| Nc1cc2c3c(cccc3c1)NC2=O | > 100 µM |
| N#C/C(=C\c1cccc(Br)c1)c1nc2ccccc2c(=O)[nH]1 | 53.2 µM |

System: HS 578T breast
Test: NCI tumour cell line growth inhibition, 48 h

| SMILES | TGI |
| --- | --- |
| CON(C)C(=O)C(C)NC(=O)OCc1ccccc1 (stereo not given) | > 100 µM |
| Nc1cc2c3c(cccc3c1)NC2=O | > 100 µM |

System: HT29 colon
Test: NCI tumour cell line growth inhibition, 48 h

| SMILES | TGI |
| --- | --- |
| CN(C)c1ccc(/C=c2/c3ccccc3n3c2cc(-c2ccccc2)[n+]3C)cc1 | 0.908 µM |
| CON(C)C(=O)C(C)NC(=O)OCc1ccccc1 (stereo not given) | > 100 µM |
| Nc1cc2c3c(cccc3c1)NC2=O | > 100 µM |
| N#C/C(=C\c1cccc(Br)c1)c1nc2ccccc2c(=O)[nH]1 | > 100 µM |

System: IGROV1 ovarian
Test: NCI tumour cell line growth inhibition, 48 h

| SMILES | TGI |
| --- | --- |
| CN(C)c1ccc(/C=c2/c3ccccc3n3c2cc(-c2ccccc2)[n+]3C)cc1 | 0.819 µM |
| CON(C)C(=O)C(C)NC(=O)OCc1ccccc1 (stereo not given) | > 100 µM |
| Nc1cc2c3c(cccc3c1)NC2=O | > 100 µM |
| N#C/C(=C\c1cccc(Br)c1)c1nc2ccccc2c(=O)[nH]1 | > 100 µM |

System: K-562 leukemia
Test: NCI tumour cell line growth inhibition, 48 h

| SMILES | TGI |
| --- | --- |
| CN(C)c1ccc(/C=c2/c3ccccc3n3c2cc(-c2ccccc2)[n+]3C)cc1 | > 100 µM |
| CON(C)C(=O)C(C)NC(=O)OCc1ccccc1 (stereo not given) | > 100 µM |
| Nc1cc2c3c(cccc3c1)NC2=O | > 100 µM |
| N#C/C(=C\c1cccc(Br)c1)c1nc2ccccc2c(=O)[nH]1 | > 100 µM |

System: KM12 colon
Test: NCI tumour cell line growth inhibition, 48 h

| SMILES | TGI |
| --- | --- |
| CN(C)c1ccc(/C=c2/c3ccccc3n3c2cc(-c2ccccc2)[n+]3C)cc1 | 0.694 µM |
| CON(C)C(=O)C(C)NC(=O)OCc1ccccc1 (stereo not given) | > 100 µM |
| Nc1cc2c3c(cccc3c1)NC2=O | > 100 µM |
| N#C/C(=C\c1cccc(Br)c1)c1nc2ccccc2c(=O)[nH]1 | > 100 µM |

System: LOX IMVI melanoma
Test: NCI tumour cell line growth inhibition, 48 h

| SMILES | TGI |
| --- | --- |
| Nc1cc2c3c(cccc3c1)NC2=O | > 100 µM |
| N#C/C(=C\c1cccc(Br)c1)c1nc2ccccc2c(=O)[nH]1 | > 100 µM |

System: M14 melanoma
Test: NCI tumour cell line growth inhibition, 48 h

| SMILES | TGI |
| --- | --- |
| CN(C)c1ccc(/C=c2/c3ccccc3n3c2cc(-c2ccccc2)[n+]3C)cc1 | 1.44 µM |
| CON(C)C(=O)C(C)NC(=O)OCc1ccccc1 (stereo not given) | > 100 µM |
| Nc1cc2c3c(cccc3c1)NC2=O | > 100 µM |
| N#C/C(=C\c1cccc(Br)c1)c1nc2ccccc2c(=O)[nH]1 | > 100 µM |

System: MALME-3M melanoma
Test: NCI tumour cell line growth inhibition, 48 h

| SMILES | TGI |
| --- | --- |
| CON(C)C(=O)C(C)NC(=O)OCc1ccccc1 (stereo not given) | > 100 µM |
| Nc1cc2c3c(cccc3c1)NC2=O | > 100 µM |
| N#C/C(=C\c1cccc(Br)c1)c1nc2ccccc2c(=O)[nH]1 | > 100 µM |

System: MCF7 breast
Test: NCI tumour cell line growth inhibition, 48 h

| SMILES | TGI |
| --- | --- |
| CON(C)C(=O)C(C)NC(=O)OCc1ccccc1 (stereo not given) | > 100 µM |
| Nc1cc2c3c(cccc3c1)NC2=O | > 100 µM |
| N#C/C(=C\c1cccc(Br)c1)c1nc2ccccc2c(=O)[nH]1 | > 100 µM |

System: MDA-MB-231 breast
Test: NCI tumour cell line growth inhibition, 48 h

| SMILES | TGI |
| --- | --- |
| Nc1cc2c3c(cccc3c1)NC2=O | > 100 µM |
| N#C/C(=C\c1cccc(Br)c1)c1nc2ccccc2c(=O)[nH]1 | > 100 µM |

System: MDA-MB-435
Test: NCI tumour cell line growth inhibition, 48 h

| SMILES | TGI |
| --- | --- |
| CN(C)c1ccc(/C=c2/c3ccccc3n3c2cc(-c2ccccc2)[n+]3C)cc1 | 1.12 µM |
| CON(C)C(=O)C(C)NC(=O)OCc1ccccc1 (stereo not given) | > 100 µM |
| Nc1cc2c3c(cccc3c1)NC2=O | > 100 µM |
| N#C/C(=C\c1cccc(Br)c1)c1nc2ccccc2c(=O)[nH]1 | > 100 µM |

System: MDA-N
Test: NCI tumour cell line growth inhibition, 48 h

| SMILES | TGI |
| --- | --- |
| CN(C)c1ccc(/C=c2/c3ccccc3n3c2cc(-c2ccccc2)[n+]3C)cc1 | 1.22 µM |
| CON(C)C(=O)C(C)NC(=O)OCc1ccccc1 (stereo not given) | > 100 µM |
| Nc1cc2c3c(cccc3c1)NC2=O | > 100 µM |
| N#C/C(=C\c1cccc(Br)c1)c1nc2ccccc2c(=O)[nH]1 | > 100 µM |

System: MOLT-4 leukemia
Test: NCI tumour cell line growth inhibition, 48 h

| SMILES | TGI |
| --- | --- |
| CON(C)C(=O)C(C)NC(=O)OCc1ccccc1 (stereo not given) | > 100 µM |
| Nc1cc2c3c(cccc3c1)NC2=O | > 100 µM |
| N#C/C(=C\c1cccc(Br)c1)c1nc2ccccc2c(=O)[nH]1 | > 100 µM |

System: NCI-H226 lung
Test: NCI tumour cell line growth inhibition, 48 h

| SMILES | TGI |
| --- | --- |
| CN(C)c1ccc(/C=c2/c3ccccc3n3c2cc(-c2ccccc2)[n+]3C)cc1 | 1070 nM |
| CON(C)C(=O)C(C)NC(=O)OCc1ccccc1 (stereo not given) | > 100000 nM |
